Test results taken from patent US4914086A, “Method for treating African human and veterinary trypanosomiases” (priority 1987, dated 1990).
“Also recorded” adds a separate entry of the source.

How the values were obtained:
T. b. brucei EATRO 110 = test: Drug screen, acute EATRO 110 mouse infection (Tables 1, 3); format: in vivo, Trypanosoma brucei brucei (in Swiss-Webster mice)
Text: (§1) T. b. brucei EATRO 110 isolate was maintained as described (Bacchi, C. J., H. C. Nathan, S. H. Hutner, P. P. McCann and A. Sjoerdsma; Polyamine metabolism: a potential chemotherapeutic target in trypanosomes. Science 210: 332-334, 1980). It produces an acute, rapidly fatal parasitemia which is lethal to mice 3-5 days after inoculation. Two T. B. brucei strains, TREU 667 and LUMP 1001 developed by Jennings and coworkers (Jennings, F. W., D. D. Whitelaw and G. M. Urquhart; The relationship between duration of infection with Trypanosoma brucei in mice and the efficacy of chemotherapy. Parasitology 75: 143-153, 1977/Jennings, F. W. and G. D. Gray; Relapsed parasitemia following chemotherapy of chronic T. brucei infections in mice and its relation to cerebral trypanosomes; Contr. Microbiol. Immunol. 7 147-154, 1983) were used as CNS models. Both produce infections which are refractory to Berenil® (diminazene aceturate) and develop within 21 days after inoculation. They are not usually fatal until >40 days after inoculation. LUMP 1001 causes a more virulent CNS infection than TREU 667, and is regarded as more difficult to cure (Jennings, F. W. and G. D. Gray. Relapsed parasitemia following chemotherapy of chronic T. brucei infections in mice and its relation to cerebral trypanosomes. Contr. Microbiol. Immunol. 7 147-154, 1983).
(§2) Swiss-Webster (25-30 g) mice were used throughout. In the EATRO 110 model, groups of 100 mice were infected (10^5 trypanosomes/mouse) and the infection was allowed to develop 24 hours before commencing therapy. Animals were divided into groups of 5 before treatment. Cured animals survived >30 days beyond deaths of controls. All compounds were administered by i.p. injection.
Other methods as in Table 1.

T. b. brucei LUMP 1001 = test: CNS model, T. b. brucei LUMP 1001 infection in mice (Table 5); format: in vivo, Trypanosoma brucei brucei (in Swiss-Webster mice); settings: for efficacy in CNS model in words: LUMP 1001
Text: as §1
The models for […] nervous system infections used TREU 667 and LUMP 1001 strains which were stored frozen and passaged once in rats before infection of mice. Maintenance and use of these screens were as described (Clarkson, A. B. Jr., C. J. Bacchi, G. H. Mellon, H. C. Nathan, P. P. McCann and A. Sjoerdsma. Efficacy of DFMO+blemoycin in a mouse model of central nervous system African trypanosomiasis. Proc. Natl. Acad. Sci. USA. 80: 5729-5733, 1983/Clarkson, A. B. Jr., E. J. Biene, C. J. Bacchi, P. P. McCann, S. H. Hutner and A. Sjoerdsma. New drug combination for experimental late stage African trypanosomiasis: DFMO with suramin. Am. J. Trop. Med. Hyg. 33: 1073-1077, 1984/Dube, D. K., G. Mpimbaza, A. C. Allison, E. Lederer and L. Rovis. Antitrypanosomal activity of sinefungin, Am. J. Trop. Med. Hyg. 32: 31-33, 1983/Fish, W. R., J. J. Marr, R. L. Berens, D. L. Looker, D. J. Nelson, S. LaFon and A. E. Balber. Inosine analogs as chemotherapeutic agents for African trypanosomes: metabolism in trypanosomes and efficacy in tissue culture. Anti-microb. Ag. Chemother. 27: 33-36, 1985/Clazer, R. I., and L. S. Lloyd. Effects of 8-azaadenosine and formycin on cell lethality and the synthesis and methylation of nucleic acids in human colon carcinoma cells in culture. Biochem. Pharmacol. 31: 3207-3214, 1982/Bacchi, C. J., H. C. Nathan, A. B. Clarkson, Jr., E. J. Bienen, A. J. Bitonti, P. P. McCann and A. Sjoerdsma. Activity of the ornithine decarboxylase inhibitors DL-α-difluoromethylornithine and monofluormethyldehydroornithine methylester alone and in combination with suramin against Trypanosoma brucei brucei central nervous system models, Am. J. Trop. Med. Hyg. (in press)). Briefly, groups of 100-120 mice were infected and the infections allowed to develop until day 21, when the animals were separated into groups of 10 and therapy commenced. Controls were treated with Berenil (40 mg/kg) on day 21. […] Parasitemia was followed by examining tail vein blood smears once weekly. Animals which had relapsed were removed from cages.

in vivo = test: in vivo
Method: as §2

[1] = system: Trypanosoma brucei rhodesiense; settings: bone marrow tissue culture system; cited from earlier work
Pneumocystis Carinii = settings: tissue culture; cited from earlier work
mouse L cells = settings: cited from earlier work
T. cruzi = settings: previous studies; cited from earlier work
T. B. gambiense = settings: cited from earlier work
T. b. rhodesiense = settings: cited from earlier work
VA-13 human cells = settings: cited from earlier work
T. b. brucei = settings: cited from earlier work
T. congolense = settings: cited from earlier work
T. vivax = settings: multiple daily doses; Dube et al.; cited from earlier work
[2] = Table 1, 5 mg/kg i.p. (9-DINO, sinefungin once daily for 3 days)
[3] = Table 1, 10 mg/kg i.p. (9-DINO, sinefungin once daily for 3 days)
[4] = Table 1, 25 mg/kg i.p. (9-DINO, sinefungin once daily for 3 days)
[5] = Table 1, 50 mg/kg i.p. (9-DINO, sinefungin once daily for 3 days)
[6] = Table 1, 100 mg/kg i.p. (9-DINO, sinefungin once daily for 3 days)
[7] = Table 1, 200 mg/kg i.p. once daily for 3 days
[8] = Table 1, 400 mg/kg i.p. once daily for 3 days
[9] = Table 3, 5 mg/kg i.p. once daily for 3 days
[10] = Table 3, 10 mg/kg i.p. once daily for 3 days
[11] = Table 3, 25 mg/kg i.p. once daily for 3 days
[12] = Table 1, 0.5 mg/kg i.p. once daily for 3 days
[13] = Table 1, 1 mg/kg i.p. once daily for 3 days
[14] = Table 1, 2.5 mg/kg i.p. (9-DINO, sinefungin once daily for 3 days)
[15] = Table 3, 0.5 mg/kg i.p. once daily for 3 days
[16] = Table 3, 1.0 mg/kg i.p. once daily for 3 days
[17] = multiple daily doses, Dube et al.

O=c1[nH]cnc2c([C@@H]3O[C@H](CO)[C@@H](O)[C@H]3O)c[nH]c12 [9-DINO, 7-beta-D-ribofuranosyl-4-oxo-3H, 5H-pyrrolo (3,2-d) pyrimidine]
cure rate (T. b. brucei EATRO 110; 50-100 mg/kg, EATRO 110): 100%
curative / active dose range (T. b. brucei EATRO 110; EATRO 110, text): 25 to 200 mg/kg
# Cured/Total (T. b. brucei EATRO 110; [2]): 0/5
% Cured (T. b. brucei EATRO 110; [2]): 0%
# Cured/Total (T. b. brucei EATRO 110; [3]): 2/30
% Cured (T. b. brucei EATRO 110; [3]): 7%
# Cured/Total (T. b. brucei EATRO 110; [4]): 15/20
% Cured (T. b. brucei EATRO 110; [4]): 50%
# Cured/Total (T. b. brucei EATRO 110; [5]): 4/5
% Cured (T. b. brucei EATRO 110; [5]): 80%
# Cured/Total (T. b. brucei EATRO 110; [6]): 5/5
% Cured (T. b. brucei EATRO 110; [6]): 100%
# Cured/Total (T. b. brucei EATRO 110; [7]): 5/5
% Cured (T. b. brucei EATRO 110; [7]): 100%
# Cured/Total (T. b. brucei EATRO 110; [8]): 3/5
% Cured (T. b. brucei EATRO 110; [8]): 60%
# Cured/Total (T. b. brucei EATRO 110; [9]): 0/5
% Cured (T. b. brucei EATRO 110; [9]): 0%
# Cured/Total (T. b. brucei EATRO 110; [10]): 2/30
% Cured (T. b. brucei EATRO 110; [10]): 7%
# Cured/Total (T. b. brucei EATRO 110; [11]): 15/20
% Cured (T. b. brucei EATRO 110; [11]): 75%
activity in the acute (short term) EATRO 110 model, in words (T. b. brucei EATRO 110; listed as 9-deazainosine): greatest activity; also recorded: most active analog of the two
activity in the acute (short term) EATRO 110 model, in words (T. b. brucei EATRO 110; text summary): greatest activity; also recorded: highly effective; also recorded: active against acute models; also recorded: more effective than sinefungin, allopurinol and allopurinol riboside
activity in the acute (short term) EATRO 110 model, in words (T. b. brucei EATRO 110; text summary, listed as 9DINO): active against an acute infection
# Cured/Total (T. b. brucei LUMP 1001; 50 mg/kg i.p., 7 days): 0/10
% Cured (T. b. brucei LUMP 1001; 50 mg/kg i.p., 7 days): 0%
Avg. Day of Relapse (Range) (T. b. brucei LUMP 1001; 50 mg/kg i.p., 7 days): 36 (35-44) Day
# Cured/Total (T. b. brucei LUMP 1001; 100 mg/kg i.p., 7 days): 0/9
% Cured (T. b. brucei LUMP 1001; 100 mg/kg i.p., 7 days): 0%
Avg. Day of Relapse (Range) (T. b. brucei LUMP 1001; 100 mg/kg i.p., 7 days): 38 (35-44) Day
# Cured/Total (T. b. brucei LUMP 1001; 250 mg/kg i.p., 7 days): 0/10
% Cured (T. b. brucei LUMP 1001; 250 mg/kg i.p., 7 days): 0%
Avg. Day of Relapse (Range) (T. b. brucei LUMP 1001; 250 mg/kg i.p., 7 days): 49 (35-63) Day
efficacy in CNS model in words (T. b. brucei LUMP 1001): did not cure CNS infections
dose at which toxicity appeared (in vivo; mouse, in vivo): 400 mg/kg
toxicity in words (in vivo; prolonged (i.e. 1 week) dose regimens): no evidence of toxicity
activity in words [1]: active at very low concentrations
activity in words (Pneumocystis Carinii): active
metabolism in words (mouse L cells): nor metabolized to adenosine nucleotide analogues by these cells; also recorded: not metabolized to adenine nucleotide analogs
activity in words (T. cruzi): more active than allopurinol, thipurinol, and their respective nucleosides
metabolism in words (T. B. gambiense): metabolized to 9-deaza-ATP
metabolism in words (T. b. rhodesiense): metabolized to 9-deaza-ATP
metabolism to adenine nucleotide analogs in words (VA-13 human cells): not metabolized to adenine nucleotide analogs

Nc1ncnc2c1ncn2[C@@H]1O[C@H](C[C@@H](N)CC[C@H](N)C(=O)O)[C@@H](O)[C@H]1O [Sinefungin, 6,9-Diamino-1-(6-amino-9H-purin-9-yl)-1,5,6,7,8,9-hexadeoxy-beta-D-ribo-decofuranuronic acid]
% active (T. b. brucei EATRO 110; 25 mg/kg, single dose): 80%
# Cured/Total (T. b. brucei EATRO 110; [12]): 0/15
% Cured (T. b. brucei EATRO 110; [12]): 0%
# Cured/Total (T. b. brucei EATRO 110; [13]): 0/20
% Cured (T. b. brucei EATRO 110; [13]): 0%
# Cured/Total (T. b. brucei EATRO 110; [14]): 0/5
% Cured (T. b. brucei EATRO 110; [14]): 0%
# Cured/Total (T. b. brucei EATRO 110; [2]): 9/15
% Cured (T. b. brucei EATRO 110; [2]): 60%
# Cured/Total (T. b. brucei EATRO 110; [3]): 8/15
% Cured (T. b. brucei EATRO 110; [3]): 53%
# Cured/Total (T. b. brucei EATRO 110; [4]): 4/5
% Cured (T. b. brucei EATRO 110; [4]): 80%
# Cured/Total (T. b. brucei EATRO 110; [15]): 0/15
% Cured (T. b. brucei EATRO 110; [15]): 0%
# Cured/Total (T. b. brucei EATRO 110; [16]): 0/20
% Cured (T. b. brucei EATRO 110; [16]): 0%
# Cured/Total (T. b. brucei EATRO 110; [9]): 9/15
% Cured (T. b. brucei EATRO 110; [9]): 60%
# Cured/Total (T. b. brucei EATRO 110; [10]): 8/15
% Cured (T. b. brucei EATRO 110; [10]): 53%
# Cured/Total (T. b. brucei EATRO 110; [11]): 4/5
% Cured (T. b. brucei EATRO 110; [11]): 80%
% effective (T. b. brucei EATRO 110; single doses of 5 or 10 mg/kg): ~ 50%
activity in the acute (short term) EATRO 110 model, in words (T. b. brucei EATRO 110; text summary): less active than 9-DINO and Formycin B
# Cured/Total (T. b. brucei LUMP 1001; 2.5 mg/kg i.p., 3 days): 0/10
% Cured (T. b. brucei LUMP 1001; 2.5 mg/kg i.p., 3 days): 0%
Avg. Day of Relapse (Range) (T. b. brucei LUMP 1001; 2.5 mg/kg i.p., 3 days): 35 days
# Cured/Total (T. b. brucei LUMP 1001; 5 mg/kg i.p., 3 days): 0/10
% Cured (T. b. brucei LUMP 1001; 5 mg/kg i.p., 3 days): 0%
Avg. Day of Relapse (Range) (T. b. brucei LUMP 1001; 5 mg/kg i.p., 3 days): 35 days
# Cured/Total (T. b. brucei LUMP 1001; 10 mg/kg i.p., 3 days): 0/10
% Cured (T. b. brucei LUMP 1001; 10 mg/kg i.p., 3 days): 0%
Avg. Day of Relapse (Range) (T. b. brucei LUMP 1001; 10 mg/kg i.p., 3 days): 39 (35-71) Day
efficacy in CNS model in words (T. b. brucei LUMP 1001): did not produce complete cures
% curable (T. b. brucei; 3×5 mg/kg dose, 8 hour intervals): 100%
cure in words (T. b. brucei; [17]): cured
total dose to which infection responded (T. congolense; 9 injections 2 h apart): 0.45 mg
cure in words (T. congolense; [17]): cured
cure in words (T. vivax): cured
